Measured values reported in US20230116972A1, “CD38 MODULATORS AND METHODS OF USE THEREOF” (Cytokinetics, Inc., priority 2021, published 2023).

Columns and labels:
human CD38 = target: T1, human CD38 (Homo sapiens, UniProt P28907); assay: human recombinant CD38 enzyme assay (hydrolysis of NAD+); format: biochemical; details: human recombinant CD38, 0.4 nM enzyme, 62.5 μM NAD+; read-out: hCD38 BioChem IC50
T1 sequence (P28907 1-300): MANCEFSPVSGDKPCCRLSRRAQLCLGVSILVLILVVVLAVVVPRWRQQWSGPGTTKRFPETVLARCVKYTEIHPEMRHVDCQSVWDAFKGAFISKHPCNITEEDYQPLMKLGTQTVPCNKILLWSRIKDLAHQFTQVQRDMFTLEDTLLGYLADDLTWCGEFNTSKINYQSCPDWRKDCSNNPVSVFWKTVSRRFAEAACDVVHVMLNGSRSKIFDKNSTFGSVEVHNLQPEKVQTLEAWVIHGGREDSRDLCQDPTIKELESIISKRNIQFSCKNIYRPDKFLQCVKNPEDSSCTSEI
Summary of the method: (§1)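 Cell-free recombinant enzyme, NAD+ substrate, 60 min at RT. Stop/detect: ethanol/ADH plus semicarbazide and a CD38 inhibitor (15 min), then NaOH, then resazurin/diaphorase (15 min). Remaining NAD+ read as resorufin fluorescence, Ex/Em 540/590 nm. Inhibition fitted from dose responses.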

mouse CD38 = target: T2, mouse CD38 (Mus musculus, UniProt P56528); assay: mouse recombinant CD38 enzyme assay (hydrolysis of NAD+); format: biochemical; details: read-out: mCD38 BioChem IC50
T2 sequence (P56528 1-304): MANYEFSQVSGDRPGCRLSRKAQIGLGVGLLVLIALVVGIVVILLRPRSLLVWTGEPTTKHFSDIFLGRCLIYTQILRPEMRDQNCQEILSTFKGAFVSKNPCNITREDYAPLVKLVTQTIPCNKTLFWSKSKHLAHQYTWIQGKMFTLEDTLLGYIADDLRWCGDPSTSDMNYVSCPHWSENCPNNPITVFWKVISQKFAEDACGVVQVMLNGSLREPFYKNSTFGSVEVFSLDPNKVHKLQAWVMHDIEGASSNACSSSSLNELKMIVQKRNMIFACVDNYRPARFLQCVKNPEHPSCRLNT
Summary of the method: as §1

[1] = target: T3, endogenous CD38 in HL60 cells (Homo sapiens, UniProt P28907); assay: cellular CD38 assay in HL60 cells (cellular NAD levels); format: cell-based; details: all-trans retinoic acid, 24 hours, read-out: hCD38 HL60 ATRA NAD Cell Diaphorase IC50
T3 construct: endogenous in cells; host or cells: HL60 (leukemic cells, treated with all-trans retinoic acid)
T3 sequence (P28907 1-300): T1 sequence (P28907 1-300)
Summary of the method: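 HL60 cells (20000/well) were treated with compound in DMSO for 24 h. Cellular NAD was then measured by an enzymatic cycling mix (alcohol dehydrogenase, diaphorase, 40 uM resazurin, 10 uM FMN, 3% ethanol, Triton X-100, pH 8.4).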

## CC(C)c1cc(C(=O)N[C@H]2CC[C@H](C(F)F)CC2)nc(-c2cncn2C)n1 [Compound 172, N-((1r,4r)-4-(difluoromethyl)cyclohexyl)-6-isopropyl-2-(1-methyl-1H-imidazol-5-yl)pyrimidine-4-carboxamide]
Human CD38
  IC50: 21 nM
Mouse CD38
  IC50: 5 nM
[1]
  IC50: 2950 nM

## C[C@H]1CC[C@H](NC(=O)c2cncc(-n3ccnc3)n2)CC1 [Compound 102, 6-(1H-imidazol-1-yl)-N-((1r,4r)-4-methylcyclohexyl)pyrazine-2-carboxamide]
Human CD38
  IC50: 23 nM
Mouse CD38
  IC50: 7 nM
[1]
  IC50: 1010 nM

## COCCO[C@H]1CC[C@H](NC(=O)c2cc(C)nc(-n3ccnc3)n2)CC1 [Compound 156, 2-(1H-imidazol-1-yl)-N-((1r,4r)-4-(2-methoxyethoxy)cyclohexyl)-6-methylpyrimidine-4-carboxamide]
Human CD38
  IC50: 30 nM
Mouse CD38
  IC50: 4 nM
[1]
  IC50: 2300 nM

## O=C(Nc1ccc(C(F)F)nc1)c1cc(C(F)(F)F)nc(-c2cncs2)n1 [Compound 116, N-(6-(difluoromethyl)pyridin-3-yl)-2-(thiazol-5-yl)-6-(trifluoromethyl)pyrimidine-4-carboxamide]
Human CD38
  IC50: 507 nM
Mouse CD38
  IC50: 185 nM
[1]
  IC50: 8160 nM

## O=C(N[C@H]1C[C@H](c2ccccc2)C1)c1nccc(-n2ccnc2)n1 [Compound 211, 4-(1H-imidazol-1-yl)-N-((1r,3r)-3-phenylcyclobutyl)pyrimidine-2-carboxamide]
Human CD38
  IC50: 46.2 nM
Mouse CD38
  IC50: 29.8 nM
[1]
  IC50: 2010 nM

## Cc1ccc(-n2ccnc2)nc1C(=O)Nc1cccnc1 [Compound 26, 6-(1H-imidazol-1-yl)-3-methyl-N-(pyridin-3-yl)picolinamide]
Human CD38
  IC50: 16 nM
Mouse CD38
  IC50: 7 nM
[1]
  IC50: 629 nM

## COc1ncc(-c2cncn2C)nc1C(=O)N[C@H]1CC[C@H](OC)CC1 [Compound 303, 3-methoxy-N-((1r,4r)-4-methoxycyclohexyl)-6-(1-methyl-1H-imidazol-5-yl)pyrazine-2-carboxamide]
Human CD38
  IC50: 296 nM
Mouse CD38
  IC50: 62.4 nM
[1]
  IC50: 10400 nM

## COc1cc(C(=O)Nc2ccc(C(F)F)nc2)nc(-c2cncn2C)c1 [Compound 225, N-(6-(difluoromethyl)pyridin-3-yl)-4-methoxy-6-(1-methyl-1H-imidazol-5-yl)picolinamide]
Human CD38
  IC50: 7 nM
Mouse CD38
  IC50: 3.8 nM
[1]
  IC50: 1080 nM

## O=C(N[C@H]1CC[C@H](OC(F)(F)F)CC1)c1nccc(-n2ccnc2)n1 [Compound 308, 4-(1H-imidazol-1-yl)-N-((1r,4r)-4-(trifluoromethoxy)cyclohexyl)pyrimidine-2-carboxamide]
Human CD38
  IC50: 125 nM
Mouse CD38
  IC50: 94.3 nM
[1]
  IC50: 6270 nM

## Cn1cncc1-c1nc(C(=O)N[C@H]2CC[C@H](C(F)F)CC2)cc(C(F)(F)F)n1 [Compound 152, N-((1r,4r)-4-(difluoromethyl)cyclohexyl)-2-(1-methyl-1H-imidazol-5-yl)-6-(trifluoromethyl)pyrimidine-4-carboxamide]
Human CD38
  IC50: 13 nM
Mouse CD38
  IC50: 1 nM
[1]
  IC50: 2350 nM

## CO[C@H]1CC[C@H](NC(=O)c2cc(C)cc(-c3cncn3C)n2)CC1 [Compound 98, N-(4-methoxycyclohexyl)-4-methyl-6-(1-methyl-1H-imidazol-5-yl)picolinamide]
Human CD38
  IC50: 106 nM
Mouse CD38
  IC50: 10 nM
[1]
  IC50: 4740 nM

## Cn1cncc1-c1ccnc(C(=O)N[C@H]2C[C@H](c3ccccc3)C2)n1 [Compound 213, 4-(1-methyl-1H-imidazol-5-yl)-N-((1r,3r)-3-phenylcyclobutyl)pyrimidine-2-carboxamide]
Human CD38
  IC50: 15.2 nM
Mouse CD38
  IC50: 9.1 nM
[1]
  IC50: 1470 nM

## COc1cc(C(=O)Nc2ccc(C(F)(F)F)nc2)nc(-n2ccnc2)c1 [Compound 221, 6-(1H-imidazol-1-yl)-4-methoxy-N-(6-(trifluoromethyl)pyridin-3-yl)picolinamide]
Human CD38
  IC50: 3.6 nM
Mouse CD38
  IC50: 2.2 nM
[1]
  IC50: 1130 nM

## CO[C@H]1CC[C@H](NC(=O)c2cc(C(F)(F)F)nc(-c3cncn3C)n2)CC1 [Compound 151, N-((1r,4r)-4-methoxycyclohexyl)-2-(1-methyl-1H-imidazol-5-yl)-6-(trifluoromethyl)pyrimidine-4-carboxamide]
Human CD38
  IC50: 14 nM
Mouse CD38
  IC50: 1 nM
[1]
  IC50: 1970 nM

## O=C(N[C@H]1CC[C@H](C(F)F)CC1)c1cc(C2CC2)nc(-n2ccnc2)n1 [Compound 161, 6-cyclopropyl-N-((1r,4r)-4-(difluoromethyl)cyclohexyl)-2-(1H-imidazol-1-yl)pyrimidine-4-carboxamide]
Human CD38
  IC50: 26 nM
Mouse CD38
  IC50: 4 nM
[1]
  IC50: 2450 nM

## Cc1cc(-c2cncn2C)nc(C(=O)Nc2ccc(C(F)F)nc2)n1 [Compound 202, N-(6-(Difluoromethyl)pyridin-3-yl)-4-methyl-6-(1-methyl-1H-imidazol-5-yl)pyrimidine-2-carboxamide]
Human CD38
  IC50: 2.8 nM
Mouse CD38
  IC50: 1.1 nM
[1]
  IC50: 229 nM

## COc1ncc(-c2cncn2C)nc1C(=O)Nc1ccc(C(F)(F)F)nc1 [Compound 279, 3-methoxy-6-(1-methyl-1H-imidazol-5-yl)-N-(6-(trifluoromethyl)pyridin-3-yl)pyrazine-2-carboxamide]
Human CD38
  IC50: 5.1 nM
Mouse CD38
  IC50: 42.6 nM
[1]
  IC50: 865 nM

## O=C(Nc1ccc(C(F)F)nc1)c1nc(O)cc(-n2ccnc2)n1 [Compound 216, N-(6-(difluoromethyl)pyridin-3-yl)-4-hydroxy-6-(1H-imidazol-1-yl)pyrimidine-2-carboxamide]
Human CD38
  IC50: 66.6 nM
Mouse CD38
  IC50: 49.3 nM
[1]
  IC50: 9420 nM

## CC(=O)N1CC2(CC(NC(=O)c3cccc(-n4ccnc4)n3)C2)C1 [Compound 47, N-(2-acetyl-2-azaspiro[3.3]heptan-6-yl)-6-(1H-imidazol-1-yl)picolinamide]
Human CD38
  IC50: 417 nM
Mouse CD38
  IC50: 100 nM
[1]
  IC50: 9150 nM

## CC(C)c1cc(C(=O)Nc2ccc(C(F)F)nc2)nc(-c2cncn2C)n1 [Compound 173, N-(6-(difluoromethyl)pyridin-3-yl)-6-isopropyl-2-(1-methyl-1H-imidazol-5-yl)pyrimidine-4-carboxamide]
Human CD38
  IC50: 8 nM
Mouse CD38
  IC50: 2 nM
[1]
  IC50: 1250 nM

## O=C(Nc1ccc(C(F)F)nc1)c1cc(C2CCOCC2)nc(-n2ccnc2)n1 [Compound 195, N-(6-(difluoromethyl)pyridin-3-yl)-2-(1H-imidazol-1-yl)-6-(tetrahydro-2H-pyran-4-yl)pyrimidine-4-carboxamide]
Human CD38
  IC50: 14.6 nM
Mouse CD38
  IC50: 9.9 nM
[1]
  IC50: 1580 nM

## O=C(Nc1cccnc1)c1nccc(-n2ccnc2)n1 [Compound 36, 4-(1H-imidazol-1-yl)-N-(pyridin-3-yl)pyrimidine-2-carboxamide]
Human CD38
  IC50: 5 nM
Mouse CD38
  IC50: 14 nM
[1]
  IC50: 187 nM

## O=C(N[C@H]1CC[C@@H](O)CC1)c1cccc(-n2ccnc2)n1 [Compound 31, N-(4-hydroxycyclohexyl)-6-(1H-imidazol-1-yl)picolinamide]
Human CD38
  IC50: 479 nM
Mouse CD38
  IC50: 205 nM
[1]
  IC50: 15700 nM

## O=C(Nc1ccc(C(F)(F)F)nc1)c1nc(-n2ccnc2)ccc1F [Compound 42, 3-fluoro-6-(1H-imidazol-1-yl)-N-(6-(trifluoromethyl)pyridin-3-yl)picolinamide]
Human CD38
  IC50: 9 nM
Mouse CD38
  IC50: 8 nM
[1]
  IC50: 903 nM
